These results are taken from patent publication US6093732A, “4-hydroxyquinoline-3-carboxamides and hydrazides as antiviral agents” (Pharmacia & Upjohn Company, priority 1998, dated 2000).

Counter-ions that a name gives are not always drawn.

The target in the first test is T1, HCMV polymerase (Human cytomegalovirus, UniProt P08546).
T1 construct: made in house; host or cells: recombinant baculovirus-infected SF-9 cells
T1 sequence (P08546 whole entry): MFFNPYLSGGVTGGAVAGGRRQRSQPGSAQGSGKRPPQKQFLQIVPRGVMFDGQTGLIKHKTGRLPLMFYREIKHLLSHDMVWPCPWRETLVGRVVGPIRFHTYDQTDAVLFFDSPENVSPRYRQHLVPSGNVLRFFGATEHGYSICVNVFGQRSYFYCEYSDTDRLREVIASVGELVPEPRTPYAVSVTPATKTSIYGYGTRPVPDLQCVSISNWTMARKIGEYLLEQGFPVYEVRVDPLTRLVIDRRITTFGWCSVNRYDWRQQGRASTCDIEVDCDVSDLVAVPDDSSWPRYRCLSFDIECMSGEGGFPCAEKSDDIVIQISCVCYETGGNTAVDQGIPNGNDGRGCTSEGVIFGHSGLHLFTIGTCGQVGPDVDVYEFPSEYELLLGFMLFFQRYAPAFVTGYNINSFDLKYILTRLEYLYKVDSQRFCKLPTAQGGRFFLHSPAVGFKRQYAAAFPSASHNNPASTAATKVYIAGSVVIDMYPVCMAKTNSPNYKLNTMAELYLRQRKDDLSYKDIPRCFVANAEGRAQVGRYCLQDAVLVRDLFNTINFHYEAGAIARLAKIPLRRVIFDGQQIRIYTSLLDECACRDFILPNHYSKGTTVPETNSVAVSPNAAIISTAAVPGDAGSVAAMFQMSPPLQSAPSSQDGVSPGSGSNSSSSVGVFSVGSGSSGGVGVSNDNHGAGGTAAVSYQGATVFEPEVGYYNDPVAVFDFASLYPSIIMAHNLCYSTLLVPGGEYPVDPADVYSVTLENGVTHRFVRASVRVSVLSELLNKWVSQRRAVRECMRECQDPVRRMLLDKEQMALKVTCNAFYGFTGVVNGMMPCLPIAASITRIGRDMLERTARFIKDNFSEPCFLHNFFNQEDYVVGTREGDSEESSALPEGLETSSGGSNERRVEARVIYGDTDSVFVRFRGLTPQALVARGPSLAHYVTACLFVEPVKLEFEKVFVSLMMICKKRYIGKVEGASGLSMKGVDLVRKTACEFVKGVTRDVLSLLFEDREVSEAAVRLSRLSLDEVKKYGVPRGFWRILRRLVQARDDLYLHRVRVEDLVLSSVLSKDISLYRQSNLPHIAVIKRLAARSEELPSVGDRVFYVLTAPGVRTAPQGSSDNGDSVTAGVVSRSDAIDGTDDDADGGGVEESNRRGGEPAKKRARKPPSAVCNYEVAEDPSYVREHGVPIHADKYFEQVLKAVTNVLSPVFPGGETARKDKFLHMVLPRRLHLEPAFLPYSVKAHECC
The test can be described thus: HCMV polymerase scintillation proximity assay (SPA), modified version. The test is classed as biochemical. As to conditions: Antiviral Selective Polymerase IC50 Values, CMV, Table 1, modified assay with 4.5 mM DTT, compounds in 100% DMSO. The procedure:
The HCMV polymerase assay is performed using a scintillation proximity assay (SPA) as described in several references, such as N. D. Cook, et al., Pharmaceutical Manufacturing International, pages 49-53 (1992); K. Takeuchi, Laboratory Practice, September issue (1992); U.S. Pat. No. 4,568,649 (1986); which are incorporated by reference herein. Reactions are performed in 96-well plates. The assay is conducted in 100 μl volume with 5.4 mM HEPES (pH 7.5), 11.7 mM KCl, 4.5 mM MgCl2, 0.36 mg/ml BSA, and 90 nM ^3 H-dTTP. Assays are run with and without CHAPS, (3-[(3-Cholamidopropyl)-dimethylammonio]-1-propane-sulfonate) at a final concentration of 2 mM. HCMV polymerase is diluted in enzyme dilution buffer containing 50% glycerol, 250 mM NaCl, 10 mM HEPES (pH 7.5), 100 μg/ml BSA, and 0.01% sodium azide. The HCMV polymerase, which is expressed in recombinant baculovirus-infected SF-9 cells and purified according to literature procedures, is added at 10% (or 10 μl) of the final reaction volume, i.e., 100 μl. Compounds are diluted in 50% DMSO and 10 μl are added to each well. Control wells contain an equivalent concentration of DMSO. Unless noted otherwise, reactions are initiated via the addition of 6 nM biotinylated poly(dA)-oligo(dT) template/primer to reaction mixtures containing the enzyme, substrate, and compounds of interest. Plates are incubated in a 25° C. or 37° C. H2 O bath and terminated via the addition of 40 μl/reaction of 0.5 M EDTA (pH 8) per well. Reactions are terminated within the time-frame during which substrate incorporation is linear and varied depending upon the enzyme and conditions used, i.e., 30 min. for HCMV polymerase. Ten μl of streptavidin-SPA beads (20 mg/ml in PBS/10% glycerol) are added following termination of the reaction. Plates are incubated 10 min. at 37° C., then equilibrated to room temperature, and counted on a Packard Topcount. Linear regressions are performed and IC50 's are calculated using computer software.
A modified version of the above HCMV polymerase assay is performed as described above, but with the following changes: Compounds are diluted in 100% DMSO until final dilution into assay buffer. In the previous assay, compounds are diluted in 50% DMSO. 4.5 mM dithiotherotol (DTT) is added to the polymerase buffer. […] Other viral polymerase assays are performed using procedures similar to those described above.
On the technique in general: SPA uses beads or plates that emit light when radiolabelled molecules are held near them.
The term IC50 denotes the concentration at which inhibition is half-maximal. In turn, `O=C(NCc1ccc(Cl)cc1)c1cnc2c(F)cc(S(=O)(=O)NCCCl)cc2c1O` [Example 245, N-(4-chlorobenzyl)-6-{[(2-chloroethyl)amino]sulfonyl}-8-fluoro-4-hydroxy-3-quinolinecarboxamide] gave an IC50 of 13.3 µM.

Staying with this test, now noted: CMV polymerase; Table 1; modified assay with 4.5 mM DTT, compounds in 100% DMSO; read-out: Antiviral Selective Polymerase IC50 Values, CMV.
For `O=COCC#Cc1cc(F)c2ncc(C(=O)NCc3ccc(Cl)cc3)c(O)c2c1` [Example 131, 3-(3-{[(4-Chlorobenzyl)amino]carbonyl}-8-fluoro-4-hydroxy-6-quinolinyl)-2-propynyl formate], the IC50 stood at 1.8 µM.

In the case of `O=C(NCc1ccc(Cl)cc1)c1cnc2c(F)cc(C#Cc3ccccn3)cc2c1O` [Example 92, N-(4-Chlorobenzyl)-8-fluoro-4-hydroxy-6-[2-(2-pyridinyl)ethynyl]-3-quinolinecarboxamide], the IC50 was found to be 20.6 µM.

`O=C(NCc1ccc(Cl)cc1)c1cnc2cc3c(cc2c1O)CCC3` [Example 64, N-[(4-Chlorophenyl)methyl]-7,8-dihydro-4-hydroxy-6H-cyclopent a[g]quinoline-3-carboxamide]: the IC50 was 8.5 µM.

On to `CSCCCc1cc(F)c2ncc(C(=O)NCc3ccc(Cl)cc3)c(O)c2c1` [Example 130, N-[(4-Chlorophenyl)methyl]-8-fluoro-4-hydroxy-6-[3-(methylthio)propyl]-3-quinolinecarboxamide], for which the IC50 worked out at 1.1 µM.

For `CN(C)c1ccc2c(O)c(C(=O)NCc3ccc(Cl)cc3)cnc2c1` [Example 27, N-[(4-Chlorophenyl)methyl]-7-(dimethylamino)-4-hydroxy-3-quinolinecarboxamide], the half-inhibitory concentration (IC50) came to 16 µM.

Consider `O=C(NCc1ccc(Cl)cc1)c1cnc2c(F)cc(S(=O)(=O)NCCc3c[nH]c4ccccc34)cc2c1O` [Example 210, N-(4-chlorobenzyl)-8-fluoro-4-hydroxy-6-({[2-(1H-indol-3-yl)ethyl]amino}sulfonyl)-3-quinolinecarboxamide], for which the IC50 stood at 4.8 µM.

For the compound `NNC(=S)c1cc(F)c2ncc(C(=O)NCc3ccc(Cl)cc3)c(O)c2c1` [Example 98, N-(4-Chlorobenzyl)-8-fluoro-6-(hydrazinocarbothioyl)-4-hydroxy-3-quinolinecarboxamide], the IC50 was determined as 1.3 µM.

For `O=C(NCc1ccc(Cl)cc1)c1cnc2c(F)cc(S(=O)(=O)NCCc3ccc(Cl)cc3)cc2c1O` [Example 231, N-(4-chlorobenzyl)-6-{[(4-chlorophenethyl)amino]sulfonyl}-8-fluoro-4-hydroxy-3-quinolinecarboxamide], the IC50 amounted to 8.3 µM.

For `O=C(NCc1ccc(Cl)cc1)c1cnc2ccc(COCCO)cc2c1O` [Example 163, N-(4-Chlorobenzyl)-4-hydroxy-6-[(2-hydroxyethoxy)methyl]-3-quinolinecarboxamide], the half-maximal inhibitory concentration (IC50) was 0.59 µM.

As to `NS(=O)(=O)c1ccc(CNS(=O)(=O)c2cc(F)c3ncc(C(=O)NCc4ccc(Cl)cc4)c(O)c3c2)cc1` [Example 249, 6-({[4-(aminosulfonyl)benzyl]amino}sulfonyl)-N-(4-chlorobenzyl)-8-fluoro-4-hydroxy-3-quinolinecarboxamide], the IC50 came out at 7.6 µM.

With `O=C(NCc1ccc(Cl)cc1)c1cnc2ccc3[nH]ncc3c2c1O` [Example 116], the IC50 turned out to be 16.5 µM.

Take `O=C(NCc1ccc(Cl)cc1)c1cnc2cc(C(F)(F)F)cc(C(F)(F)F)c2c1O` [Example 8, N-[(4-Chlorophenyl)methyl]-4-hydroxy-5,7-bis(trifluoromethyl)-3-quinolinecarboxamide]: the IC50 was 55.3 µM.

In the case of `O=C(NCc1ccc(Cl)cc1)c1cnc2cc(NS(=O)(=O)c3ccc(Cl)cc3)ccc2c1O` [Example 35, N-[(4-Chlorophenyl)methyl]-7-[[(4-chlorophenyl)sulfonyl]amino]-4-hydroxy-3-quinolinecarboxamide], the IC50 amounted to 9.2 µM.

Turning to `O=C(NCc1ccc(Cl)cc1)c1cnc2ccc(Br)cc2c1O` [Example 57, 6-Bromo-N-((4-chlorophenyl)methyl)-4-hydroxy-3-quinoline-carboxamide], the IC50 was 5.2 µM.

For the compound `O=C(NCc1ccc(Cl)cc1)c1cnc2c(F)cc(S(=O)(=O)NCCc3ccccc3)cc2c1O` [Example 230, N-(4-chlorobenzyl)-8-fluoro-4-hydroxy-6-[(phenethylamino)sulfonyl]-3-quinolinecarboxamide], the IC50 came out at 9.6 µM.

Regarding `CCCc1ccc2ncc(C(=O)NCc3ccc(Cl)cc3)c(O)c2c1` [Example 151, N-(4-Chlorobenzyl)-4-hydroxy-6-propyl-3-quinolinecarboxamide], the IC50 is 0.91 µM.

Regarding `CC(O)CNS(=O)(=O)c1cc(F)c2ncc(C(=O)NCc3ccc(Cl)cc3)c(O)c2c1` (stereo not shown) [Example 223, N-(4-chlorobenzyl)-8-fluoro-4-hydroxy-6-{[(2-hydroxypropyl)amino]sulfonyl}-3-quinolinecarboxamide], the IC50 was found to be 14.5 µM.

`O=C(NCCc1ccc(O)cc1)c1cc(F)c2ncc(C(=O)NCc3ccc(Cl)cc3)c(O)c2c1` [Example 183, N^3-(4-Chlorobenzyl)-8-fluoro-4-hydroxy-N^6-(4-hydroxyphenethyl)-3,6-quinolinedicarboxamide]: the half-maximal inhibitory concentration (IC50) is 32 µM.

Regarding `O=C(NCc1ccc(Cl)cc1)c1cnc2ccc(NCCO)cc2c1O` [Example 188, N-(4-Chlorobenzyl)-4-hydroxy-6-[(2-hydroxyethyl)amino]-3-quinolinecarboxamide], the half-maximal inhibitory concentration (IC50) is 2.1 µM.

As to `COc1c(F)cc2c(O)c(C(=O)NCc3ccc(Cl)cc3)cnc2c1F` [Example 82, N-((4-Chlorophenyl)methyl)-6,8-difluoro-4-hydroxy-7-methoxy-3-quinolinecarboxamide], the IC50 turned out to be 2.5 µM.

Turning to `O=C(NCc1ccc(Cl)cc1)c1cnc2c(F)cc(S(=O)(=O)NCc3ccc(-c4csnn4)cc3)cc2c1O` [Example 261, N-(4-chlorobenzyl)-8-fluoro-4-hydroxy-6-({[4-(1,2,3-thiadiazol-4-yl)benzyl]amino}sulfonyl)-3-quinolinecarboxamide], the IC50 came out at 15.1 µM.

As for `COCCNc1c(F)cc2c(O)c(C(=O)NCc3ccc(Cl)cc3)cnc2c1F` [Example 88, N-(4-Chlorobenzyl)-6,8-difluoro-4-hydroxy-7-[(2-methoxyethyl)amino]-3-quinolinecarboxamide], the IC50 was 30.3 µM.

On to `CC(O)C#Cc1cc(F)c2ncc(C(=O)NCc3ccc(Cl)cc3)c(O)c2c1` (stereo not shown) [Example 96, N-(4-Chlorobenzyl)-8-fluoro-4-hydroxy-6-(3-hydroxy-1-butynyl)-3-quinolinecarboxamide], for which the IC50 was 4.5 µM.

On to `O=C(NCc1ccc(Cl)cc1)c1cnc2c(F)cc(-c3ccccn3)cc2c1O` [Example 90, N-(4-Chlorobenzyl)-8-fluoro-4-hydroxy-6-(2-pyridinyl)-3-quinolinecarboxamide], for which the 50% inhibitory concentration (IC50) was determined as 2.9 µM.

Consider `Cc1ccc2c(O)c(C(=O)NCc3ccc(Cl)cc3)cnc2c1` [Example 11, N-[(4-Chlorophenyl)methyl]-4-hydroxy-7-methyl-3-quinoline-carboxamide], for which the IC50 was 21.2 µM.

For `O=C(NCc1ccc(Cl)cc1)c1cnc2c(F)cc(S(=O)(=O)NCCc3ccc(O)c(O)c3)cc2c1O` [Example 246, N-(4-chlorobenzyl)-6-{[(3,4-dihydroxyphenethyl)amino]-sulfonyl}-8-fluoro-4-hydroxy-3-quinolinecarboxamide], the IC50 came out at 8.6 µM.

For `CN(CCS(=O)(=O)O)C(=O)CCCCCCC(=O)OCCCc1cc(F)c2ncc(C(=O)NCc3ccc(Cl)cc3)c(O)c2c1`, the 50% inhibitory concentration (IC50) was determined as 11.5 µM.
